Like-named read-outs stand apart in the source and are kept apart here.
Assays:
[1] = test system: MYB mRNA; test: RT-qPCR splicing assay, MYB canonical junction (CJ) and alternative junction (AJ) mRNA; format: cell-based, human; details: Homo sapiens; for AC50: increase in MYB alternative junction (AJ) mRNA, read-out: MYB AJ AC50
Procedure, shortened: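 24 h treatment, 37 °C/5% CO2; A673 or K562; 11-pt 3-fold series, top 10 uM final; DMSO ≤0.25%. Cell lysis with DNase I, then 1-step RT-qPCR. Housekeeping normalization: PPIA (A673), GAPDH or GUSB (K562).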

[2] = test system: HTT; test: HiBiT protein abundance assay, HTT HiBiT K562 cell line; format: cell-based, human; details: HiBiT lytic detection, modified K562 cells, 24 hours, top dose 10 μM; read-out: Effect on protein abundance, HTT (IC50)
Procedure, shortened: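 K562 knock-in lines with endogenous HiBiT-tagged target, 10,000 cells/well in IMDM + FBS, treated 24 h at 37° C with 10-point 3-fold dilutions (top 10 μM final; DMSO ≤0.25%). Lytic Nano-Glo HiBiT luminescence normalized to untagged K562 baseline and DMSO controls; IC50 = concentration giving 50% abundance via four-parameter fit.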

[3] = canonical junction qPCR panel, Table 5, read-out: MYB (decrease in CJ mRNA levels, IC50)
[4] = decrease in MYB canonical junction (CJ) mRNA, RT-qPCR, read-out: MYB CJ IC50

| IC50 [1, 3] | IC50 [1, 4] | IC50 [2] | SMILES | AC50 ([1]; RT-qPCR) |
| --- | --- | --- | --- | --- |
| > 10 µM | > 10 µM | > 10 µM | Cc1cn2cc(-n3cnc4ccc(N5CCNCC5)cc4c3=O)cc(F)c2n1 [Compound 2195] | > 10 µM |
| > 10 µM | > 10 µM | > 10 µM | Cn1cc2cc(-n3cnc4ccc(N5CCNCC5)cc4c3=O)cc(F)c2n1 [Compound 2196] | > 10 µM |
| 1 to 10 µM | 1 to 10 µM | 1 to 10 µM | Cc1cn2cc(-n3cnc4ccc(N5CCN(C)CC5)cc4c3=O)cc(F)c2n1 [Compound 2197] | 1 to 10 µM |
| > 10 µM | > 10 µM | > 10 µM | Cc1cn2nc(-n3cnc4ccc(N5CCNCC5)cc4c3=O)cc(C)c2n1 [Compound 2201] | > 10 µM |

The remaining lines, values behind:

| SMILES | IC50 [1, 3] | IC50 [1, 4] | IC50 [2] | AC50 ([1]; RT-qPCR) |
| --- | --- | --- | --- | --- |
| Cc1cc(-c2ccc3ncn(C4CCN(C)CC4)c(=O)c3c2)cc2cn(C)nc12 [Compound 2170] | > 10 µM | > 10 µM | > 10 µM | > 10 µM |
| CN1CCC(Nc2ccc3ncn(-c4ccc5nn(C)cc5c4)c(=O)c3c2)CC1 [Compound 2171] | > 10 µM | > 10 µM | > 10 µM | > 10 µM |
| CN(c1ccc2ncn(-c3cc(F)c4nn(C)cc4c3)c(=O)c2c1)C1CCNCC1 [Compound 2198] | > 10 µM | > 10 µM | > 10 µM | > 10 µM |
| CN1CCC(N(C)c2ccc3ncn(-c4cc(F)c5nn(C)cc5c4)c(=O)c3c2)CC1 [Compound 2199] | > 10 µM | > 10 µM | > 10 µM | > 10 µM |
| Cc1cn2cc(-n3cnc4ccc(N(C)C5CCNCC5)cc4c3=O)cc(F)c2n1 [Compound 2200] | > 10 µM | > 10 µM | > 10 µM | > 10 µM |
| Cc1cn2nc(-n3cnc4ccc(N5CCN(C)CC5)cc4c3=O)cc(C)c2n1 [Compound 2202] | 1 to 10 µM | 1 to 10 µM | 1 to 10 µM | 1 to 10 µM |
| Cc1cc(-c2ccc3c(=O)[nH]c(N4CCNCC4)nc3c2)cc2cn(C)nc12 [Compound 2211] | > 10 µM | > 10 µM | > 10 µM | > 10 µM |
| Cc1cc(-c2ccc3c(=O)[nH]c(N4CCN(C)CC4)nc3c2)cc2cn(C)nc12 [Compound 2212] | 1 to 10 µM | 1 to 10 µM | > 10 µM | 1 to 10 µM |
| Cc1cc(-c2nc3cc(N4CCNCC4)ccc3c(=O)[nH]2)cc2cn(C)nc12 [Compound 2213] | > 10 µM | > 10 µM | > 10 µM | > 10 µM |

Reference: US20250332173A1, “COMPOUNDS AND METHODS FOR MODULATING NUCLEIC ACID SPLICING” (REMIX THERAPEUTICS INC., priority 2021, published 2025)
